# From patent publication US20230274811A1, “METHODS OF MAKING PROSTATE CANCER TREATMENT DECISIONS” (Progenics Pharmaceuticals, Inc., priority 2020, published 2023)
# Test system: biochemically recurrent prostate cancer
# Experiment: CONDOR: 18F-DCFPyL PET/CT correct localization rate, detection rate and PPV vs composite standard of truth
# Format: in vivo, men
# Conditions: for PPV % (95% CI): patient level
# From the text: 1. Correct Localization Rate (CLR), defined as percentage of subjects with a one-to-one correspondence between localization of at least one lesion identified on ^18F-DCFPyL PET/CT imaging and the composite truth standard, defined as either evaluable histopathology, informative correlative imaging, or PSA response after radiation therapy.
# Men ≥18 years of age with a rising PSA after definitive PCa therapy and negative or equivocal imaging were enrolled. […] The primary endpoint of this study was the correct localization rate (CLR). CLR is defined as the percentage of patients with a one-to-one correspondence between localization of at least one lesion identified by ^18F-DCFPyL PET/CT and a composite standard of truth (SOT). SOT was determined by two central readers and included either histopathology or another standard imaging modality (i.e., fluciclovine-PET/CT, CT/MRI, bone scan) or alternatively, by a post-treatment PSA change for irradiated lesions.
# Methods: Men ≥18 years—with rising PSA after definitive therapy and negative or equivocal standard of care imaging (e.g., CT/MRI, bone scintigraphy) were enrolled. A single 9 mCi (333 MBq)±20% dose of PyL was injected, followed by PET/CT 1-2 hours later. Primary endpoint was correct localization rate (CLR), defined as percentage of pts with a 1:1 correspondence between at least one lesion identified by PyL-PET/CT and the composite standard of truth: pathology, correlative imaging, or PSA response. […] The secondary endpoint, impact of PyL-PET/CT on clinical management of pts was based on the treating physician's documented clinical plans before and after PyL-PET/CT.
# Men with a PSA ≥0.2 ng/mL after surgery or ≥2 ng/mL above the nadir after radiation therapy were eligible for enrollment. The primary endpoint was the correct localization rate (CLR) defined as positive predictive value with an additional requirement of anatomical lesion colocalization between ^18F-DCFPyL-PET/CT and a composite standard of truth (SOT). The SOT consisted of, in descending priority: 1) histopathology, 2) correlative imaging findings determined by two central readers, or 3) post-radiation PSA response. […] The impact of ^18F-DCFPyL-PET/CT as defined by change in management intent, and safety were evaluated as secondary endpoints.
# Patients voided prior to imaging, and PET and non-contrast CT images were acquired from the mid-thigh through the skull vertex. All ^18F-DCFPyL-PET/CT scans were submitted to the central imaging core laboratory for assessment. Patients with positive ^18F-DCFPyL-PET/CT scans based on local interpretation were scheduled for post-^18F-DCFPyL-PET/CT follow-up to verify suspected lesion(s) based on a composite standard of truth (SOT). (FIG. 16)
# Because of the expected absence of an amenable lesion for histologic verification in all patients, a composite SOT was employed based on assessment performed or initiated within 60 days following ^18F-DCFPyL-PET/CT. These reference standards were defined (in descending priority) as (1) evaluable histopathology results from prostatectomy, salvage pelvic lymph node dissection or biopsy; (2) imaging findings using ^18F-fluciclovine or ^11C-choline PET, or focused MRI or CT; or (3) if neither of the above was available or informative, confirmed PSA response up to 9 months post-radiation initiation (with no concomitant ADT) of all PET-positive foci. PSA response was defined as PSA decline by ≥50% from baseline that was confirmed on repeat measurement within 4 weeks, based on central laboratory results.
# A central imaging core laboratory was employed to independently manage image handling, reader training, reader sessions and data collection. […] The readers had no access to any clinical information, including PSA values or other imaging available for a patient. […]
# [1] = SOT Correlative imaging n=100, Reader 3
# [2] = SOT Histopathology n=31, Reader 1
# [3] = SOT Histopathology n=31, Reader 2
# [4] = SOT Histopathology n=31, Reader 3
# [5] = SOT PET-Fluciclovine n=71, Reader 1
# [6] = SOT PET-Fluciclovine n=71, Reader 2
# [7] = SOT PET-Fluciclovine n=71, Reader 3
structure (smiles),measurement,setting,value
"O=C(O)CC[C@H](NC(=O)N[C@@H](CCCCNC(=O)c1ccc([18F])nc1)C(=O)O)C(=O)O [18F-DCFPyL, 2-(3-{1-carboxy-5-[(6-[^18F]fluoro-pyridine-3-carbonyl)-amino]-pentyl}ureido)-pentanedioic acid]",CLR (TP/TP + FP),[1],(86.1%)
same,Negative PyL Scan,[1],(23.0%)
same,PPV (TP/TP + FP),[1],(87.0%)
same,Positive PyL Scan,[1],(77.0%)
same,CLR (TP/TP + FP),[2],(78.6%)
same,Negative PyL Scan,[2],(6.5%)
same,PPV (TP/TP + FP),[2],(93.1%)
same,Positive PyL Scan,[2],(93.5%)
same,CLR (TP/TP + FP),[3],(82.8%)
same,Negative PyL Scan,[3],(3.2%)
same,PPV (TP/TP + FP),[3],(93.3%)
same,Positive PyL Scan,[3],(96.8%)
same,CLR (TP/TP + FP),[4],(80.8%)
same,Negative PyL Scan,[4],(9.7%)
same,PPV (TP/TP + FP),[4],(92.9%)
same,Positive PyL Scan,[4],(90.3%)
same,CLR (TP/TP + FP),"SOT MRI n=23, Reader 1",(80.0%)
same,Negative PyL Scan,"SOT MRI n=23, Reader 1",(30.4%)
same,Positive PyL Scan,"SOT MRI n=23, Reader 1",(69.6%)
same,CLR (TP/TP + FP),"SOT MRI n=23, Reader 2",(86.7%)
same,Negative PyL Scan,"SOT MRI n=23, Reader 2",(30.4%)
same,Positive PyL Scan,"SOT MRI n=23, Reader 2",(69.6%)
same,CLR (TP/TP + FP),"SOT MRI n=23, Reader 3",(86.7%)
same,Negative PyL Scan,"SOT MRI n=23, Reader 3",(30.4%)
same,Positive PyL Scan,"SOT MRI n=23, Reader 3",(69.6%)
same,CLR (TP/TP + FP),[5],(90.9%)
same,Negative PyL Scan,[5],(14.1%)
same,Positive PyL Scan,[5],(85.9%)
same,CLR (TP/TP + FP),[6],(90.0%)
same,Negative PyL Scan,[6],(23.9%)
same,Positive PyL Scan,[6],(76.1%)
same,CLR (TP/TP + FP),[7],(86.8%)
same,Negative PyL Scan,[7],(19.7%)
same,Positive PyL Scan,[7],(80.3%)
same,CLR (TP/TP + FP),"SOT PSA response n=1, Reader 1",(100%)
same,Negative PyL Scan,"SOT PSA response n=1, Reader 1",(0.0%)
same,PPV (TP/TP + FP),"SOT PSA response n=1, Reader 1",(100%)
same,Positive PyL Scan,"SOT PSA response n=1, Reader 1",(100%)
same,CLR (TP/TP + FP),"SOT PSA response n=1, Reader 2",(100%)
same,Negative PyL Scan,"SOT PSA response n=1, Reader 2",(0.0%)
same,PPV (TP/TP + FP),"SOT PSA response n=1, Reader 2",(100%)
same,Positive PyL Scan,"SOT PSA response n=1, Reader 2",(100%)
same,CLR (TP/TP + FP),"SOT PSA response n=1, Reader 3",(100%)
same,Negative PyL Scan,"SOT PSA response n=1, Reader 3",(0.0%)
same,PPV (TP/TP + FP),"SOT PSA response n=1, Reader 3",(100%)
same,Positive PyL Scan,"SOT PSA response n=1, Reader 3",(100%)
same,CLR (TP/TP + FP),"all patients n=208, Reader 1",(85.6%)
same,Negative PyL Scan,"all patients n=208, Reader 1",(34.1%)
same,Positive PyL Scan,"all patients n=208, Reader 1",(65.9%)
same,CLR (TP/TP + FP),"all patients n=208, Reader 2",(87.0%)
same,Negative PyL Scan,"all patients n=208, Reader 2",(40.4%)
same,Positive PyL Scan,"all patients n=208, Reader 2",(59.6%)
same,CLR (TP/TP + FP),"all patients n=208, Reader 3",(84.8%)
same,Negative PyL Scan,"all patients n=208, Reader 3",(40.9%)
same,Positive PyL Scan,"all patients n=208, Reader 3",(59.1%)
same,lesion detection rate,baseline PSA <0.5 ng/mL,36.2%
same,median CLR,baseline PSA <0.5 ng/mL,73.3%
same,lesion detection rate,baseline PSA ≥5 ng/mL,96.7%
same,median CLR,baseline PSA ≥5 ng/mL,96.4%
same,PPV % (95% CI),CONDOR Reader 4,90%
same,PPV % (95% CI),CONDOR Reader 5,91%
same,PPV % (95% CI),CONDOR Reader 6,89%
same,CLR,patients with PSA 0.2 to <2.0 ng/mL,> 73%
same,"PET/CT finding, case study 2","person, PSA 1.27 ng/mL, confirmed by contrast-MRI",lumbar spine metastasis
same,"PET/CT finding, case study 1","person, PSA 1.92 ng/mL, confirmed by pathology",L common iliac and multiple retroperitoneal lymph node lesions
same,"PET/CT finding, case study 3","person, PSA 1.78, confirmed by biopsy",a thoracic spine lesion
